From BindingDB's records for PubMed 35175760 (Shandong University, 2022)

Columns and labels:
[1] = Inhibition of HIV-1 reverse transcriptase Y188L mutant assessed as reduction in luciferase reporter activity by single-round assay
[2] = Inhibition of HIV-1 reverse transcriptase K103N mutant assessed as reduction in luciferase reporter activity by single-round assay
[3] = Inhibition of HIV-1 reverse transcriptase Y181C mutant assessed as reduction in luciferase reporter activity by single-round assay
[4] = Inhibition of wild type HIV-1 reverse transcriptase assessed as reduction in luciferase reporter activity by single-round assay
[5] = Inhibition of HIV-1 reverse transcriptase E138K mutant assessed as reduction in luciferase reporter activity by single-round assay

Compound | EC50 [1] | EC50 [2] | EC50 [3] | EC50 [4] | EC50 [5]
Cc1cc(/C=C/C#N)cc(C)c1Nc1ncc2ncn(-c3ccc(C#N)cc3)c2n1 | 91 nM | 6.5 nM | 26 nM | 4.5 nM | 25 nM
Cc1cc(/C=C/C#N)cc(C)c1-n1cnc2cnc(Nc3ccc(C#N)cc3)nc21 | 9.6 nM | 0.4 nM | 1.5 nM | 0.2 nM | 0.7 nM
Cc1cc(/C=C/C#N)cc(C)c1Nc1ccnc(Nc2ccc(C#N)cc2)n1 [Rilpivirine] | – | – | – | 0.4 nM | –
